# Reference: patent US20250136595A1, “ACYLATED HETEROCYCLIC QUINAZOLINE DERIVATIVES AS INHIBITORS OF ERBB2” (Enliven Inc., priority 2022, published 2025)
# Legend:
# [1] = biological target: Ba/F3 ERBB2 YVMA (Homo sapiens, UniProt P04626, DUP772-775, cells depend on it); assay: Cell viability assay (CellTiter Glo) in Ba/F3 cells engineered to express ERBB2 YVMA; format: cell-based, mouse; conditions: Ba/F3 cells expressing human ERBB2 YVMA mutant, 72 hours, % viability, read-out: Ba/F3 ERBB2 YVMA IC50
# In short: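 IL-3-independent mouse Ba/F3 line stably transduced with human ERBB2 YVMA, seeded at 3000 cells/well, exposed to serially diluted compound (≤0.1% DMSO) for 72 h at 37° C. ATP read by CellTiter Glo luminescence, normalised to DMSO and media-only controls; sigmoidal nonlinear regression fit.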
# [2] = biological target: T1, phosphorylated ERBB2 (pERBB2) (Homo sapiens, UniProt P04626); assay: Detection of phosphorylated ERBB2 (pERBB2) by ELISA in BT-474 cells; format: cell-based; conditions: four hour incubation with compound
# T1 construct: endogenous in cells; host or cells: BT-474
# In short: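 BT-474 cells treated 4 h at 37 °C, 5% CO2 with four-fold dilutions (10 μM to 0.01 nM final). Lysates analysed by ELISA for pERBB2, TMB read at OD 450 nm. % relative activity normalised to no-cell (low) and 0.1% DMSO-treated (high) controls.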
# [3] = biological target: T2, phosphorylated EGFR (pEGFR) (Homo sapiens, UniProt P00533); assay: Detection of phosphorylated EGFR (pEGFR) in EGF-stimulated A431 cells (AlphaLISA); format: cell-based; conditions: A431 cells (10% FBS), 4 hours incubation, EGF 30 ng/mL for 10 minutes
# T2 construct: performed to measure phosphorylated EGFR levels using A431 cells; endogenous in cells; host or cells: A431
# In short: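 Cells in 10% FBS treated with compound 4 h at 37° C., then stimulated 10 min with 30 ng/mL EGF, lysed, and pEGFR measured by AlphaLISA. Inhibition normalized to DMSO and staurosporine controls; IC50 from four-parameter logistic fit.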
# T2 sequence (P00533 25-1210): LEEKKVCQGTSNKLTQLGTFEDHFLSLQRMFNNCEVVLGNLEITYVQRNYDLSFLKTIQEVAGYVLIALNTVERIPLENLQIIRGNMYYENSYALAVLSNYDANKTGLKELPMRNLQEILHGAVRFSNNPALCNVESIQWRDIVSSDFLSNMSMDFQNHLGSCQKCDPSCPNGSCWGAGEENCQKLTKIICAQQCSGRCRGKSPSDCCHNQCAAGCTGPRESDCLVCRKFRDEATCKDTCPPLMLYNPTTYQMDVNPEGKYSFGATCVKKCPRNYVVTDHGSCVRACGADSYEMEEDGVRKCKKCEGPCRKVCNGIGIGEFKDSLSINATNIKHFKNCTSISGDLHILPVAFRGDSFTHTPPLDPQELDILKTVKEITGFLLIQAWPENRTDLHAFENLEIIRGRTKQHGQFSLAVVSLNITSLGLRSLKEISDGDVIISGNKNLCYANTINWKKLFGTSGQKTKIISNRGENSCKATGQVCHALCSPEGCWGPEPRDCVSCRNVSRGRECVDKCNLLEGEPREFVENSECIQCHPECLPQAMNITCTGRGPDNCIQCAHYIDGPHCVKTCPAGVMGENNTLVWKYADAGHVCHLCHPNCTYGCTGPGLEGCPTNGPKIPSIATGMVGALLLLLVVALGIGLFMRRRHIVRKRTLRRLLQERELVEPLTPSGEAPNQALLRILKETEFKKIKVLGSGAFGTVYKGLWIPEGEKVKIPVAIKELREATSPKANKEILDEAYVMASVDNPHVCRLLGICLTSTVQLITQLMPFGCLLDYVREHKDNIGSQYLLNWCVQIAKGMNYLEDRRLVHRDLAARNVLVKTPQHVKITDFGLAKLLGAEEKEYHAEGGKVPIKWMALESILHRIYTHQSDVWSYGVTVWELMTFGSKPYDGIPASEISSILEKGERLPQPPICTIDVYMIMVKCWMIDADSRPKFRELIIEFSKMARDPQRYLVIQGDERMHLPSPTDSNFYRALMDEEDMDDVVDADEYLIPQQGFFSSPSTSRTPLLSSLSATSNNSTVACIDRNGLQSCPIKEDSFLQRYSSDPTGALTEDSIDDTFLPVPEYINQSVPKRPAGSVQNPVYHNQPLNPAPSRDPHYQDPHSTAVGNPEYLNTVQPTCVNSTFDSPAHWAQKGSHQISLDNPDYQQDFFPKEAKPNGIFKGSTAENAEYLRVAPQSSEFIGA
# T1 sequence (P04626 23-1255): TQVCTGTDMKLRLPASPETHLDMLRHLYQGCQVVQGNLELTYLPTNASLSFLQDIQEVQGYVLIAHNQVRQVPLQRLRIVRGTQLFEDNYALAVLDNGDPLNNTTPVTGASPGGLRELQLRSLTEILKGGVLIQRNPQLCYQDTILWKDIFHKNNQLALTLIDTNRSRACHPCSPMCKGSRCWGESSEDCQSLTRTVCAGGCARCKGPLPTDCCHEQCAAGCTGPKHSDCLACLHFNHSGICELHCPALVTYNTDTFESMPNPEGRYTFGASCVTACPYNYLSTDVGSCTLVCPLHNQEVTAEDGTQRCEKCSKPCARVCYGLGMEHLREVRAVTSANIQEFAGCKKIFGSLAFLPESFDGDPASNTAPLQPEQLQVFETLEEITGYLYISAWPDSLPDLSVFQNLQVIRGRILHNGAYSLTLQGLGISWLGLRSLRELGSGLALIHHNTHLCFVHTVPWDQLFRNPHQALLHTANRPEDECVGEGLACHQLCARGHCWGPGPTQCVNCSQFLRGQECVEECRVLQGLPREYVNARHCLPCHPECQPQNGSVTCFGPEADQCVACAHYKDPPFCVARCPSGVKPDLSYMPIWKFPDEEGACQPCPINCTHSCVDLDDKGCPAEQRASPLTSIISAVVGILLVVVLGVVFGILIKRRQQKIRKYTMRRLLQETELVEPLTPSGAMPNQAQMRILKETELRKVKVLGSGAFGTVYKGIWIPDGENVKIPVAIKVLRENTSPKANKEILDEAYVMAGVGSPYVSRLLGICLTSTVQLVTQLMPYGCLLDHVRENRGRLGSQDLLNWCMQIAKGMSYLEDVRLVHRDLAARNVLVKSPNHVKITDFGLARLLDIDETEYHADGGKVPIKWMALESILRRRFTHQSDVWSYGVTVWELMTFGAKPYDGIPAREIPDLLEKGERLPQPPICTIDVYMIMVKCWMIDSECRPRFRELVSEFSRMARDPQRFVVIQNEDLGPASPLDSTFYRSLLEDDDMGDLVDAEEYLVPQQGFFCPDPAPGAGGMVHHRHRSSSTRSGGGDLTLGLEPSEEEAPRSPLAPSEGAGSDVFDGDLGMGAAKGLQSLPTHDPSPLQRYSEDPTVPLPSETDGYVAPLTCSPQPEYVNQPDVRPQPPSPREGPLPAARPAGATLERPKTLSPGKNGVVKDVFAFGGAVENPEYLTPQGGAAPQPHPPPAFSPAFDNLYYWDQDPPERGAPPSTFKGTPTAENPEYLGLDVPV
# Chain of Ba/F3 ERBB2 YVMA (P04626 with tags, fused parts or gaps DUP772-775): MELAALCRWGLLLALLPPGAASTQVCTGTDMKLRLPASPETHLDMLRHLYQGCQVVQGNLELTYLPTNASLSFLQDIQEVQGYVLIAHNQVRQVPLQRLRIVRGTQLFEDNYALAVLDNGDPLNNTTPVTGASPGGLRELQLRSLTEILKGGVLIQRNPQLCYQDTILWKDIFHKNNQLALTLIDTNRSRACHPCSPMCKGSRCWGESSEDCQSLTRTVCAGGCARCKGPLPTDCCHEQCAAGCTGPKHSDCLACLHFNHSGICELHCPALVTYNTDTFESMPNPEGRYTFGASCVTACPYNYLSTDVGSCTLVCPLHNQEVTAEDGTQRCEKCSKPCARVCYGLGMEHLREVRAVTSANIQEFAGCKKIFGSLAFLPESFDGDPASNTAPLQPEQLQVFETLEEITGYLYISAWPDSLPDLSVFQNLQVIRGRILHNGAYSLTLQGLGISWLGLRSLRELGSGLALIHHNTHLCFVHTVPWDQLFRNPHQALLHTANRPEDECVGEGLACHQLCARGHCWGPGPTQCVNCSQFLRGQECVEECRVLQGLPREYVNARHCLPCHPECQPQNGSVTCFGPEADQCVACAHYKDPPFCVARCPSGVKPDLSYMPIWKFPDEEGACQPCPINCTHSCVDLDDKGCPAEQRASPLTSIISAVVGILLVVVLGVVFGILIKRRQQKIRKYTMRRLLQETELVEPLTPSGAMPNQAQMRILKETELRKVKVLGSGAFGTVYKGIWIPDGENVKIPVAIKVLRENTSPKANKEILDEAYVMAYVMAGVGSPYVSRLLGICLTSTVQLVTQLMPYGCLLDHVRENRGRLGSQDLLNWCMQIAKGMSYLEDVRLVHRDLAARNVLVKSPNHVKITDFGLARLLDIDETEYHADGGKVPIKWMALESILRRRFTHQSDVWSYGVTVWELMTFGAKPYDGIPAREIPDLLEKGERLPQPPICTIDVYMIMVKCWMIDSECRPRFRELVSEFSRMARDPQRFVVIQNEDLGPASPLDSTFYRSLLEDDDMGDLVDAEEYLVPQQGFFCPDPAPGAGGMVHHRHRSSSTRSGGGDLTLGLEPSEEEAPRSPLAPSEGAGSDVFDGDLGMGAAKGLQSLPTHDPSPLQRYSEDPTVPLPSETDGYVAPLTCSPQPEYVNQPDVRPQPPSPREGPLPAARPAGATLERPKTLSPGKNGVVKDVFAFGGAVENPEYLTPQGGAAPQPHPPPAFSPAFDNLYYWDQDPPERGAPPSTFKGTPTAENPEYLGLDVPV
Compound,GI50 [1],IC50 [2],IC50 [3]
"C=CC(=O)N1C2CCC1CN(c1ccc3ncnc(Nc4ccc(Cc5ccn6ncnc6c5)c(C)c4)c3n1)C2 [Compound 127, 1-(3-(4-((4-([1,2,4]triazolo[1,5-a]pyridin-7-ylmethyl)-3-methylphenyl)amino)pyrido[3,2-d]pyrimidin-6-yl)-3,8-diazabicyclo[3.2.1]octan-8-yl)prop-2-en-1-one]",4.37 nM,17.5 nM,2150 nM
"C=CC(=O)N1CC[C@H](Oc2ccc3ncnc(Nc4ccc(Oc5ccn6ncnc6c5)c(C)c4)c3c2)C1 [Compound 1, (S)-1-(3-((4-((4-([1,2,4]triazolo[1,5-a]pyridin-7-yloxy)-3-methylphenyl)amino)quinazolin-6-yl)oxy)pyrrolidin-1-yl)prop-2-en-1-one]",8.98 nM,5.68 nM,328 nM
"C=CC(=O)N1CCN(c2cc3c(Nc4ccc(Cc5ccn6ncnc6c5)c(C)c4)ncnc3cn2)CC1 [Compound 103, 1-(4-(4-((4-([1,2,4]triazolo[1,5-a]pyridin-7-ylmethyl)-3-methylphenyl)amino)pyrido[3,4-d]pyrimidin-6-yl)piperazin-1-yl)prop-2-en-1-one]",24.9 nM,16 nM,2770 nM
"C=CC(=O)N1CCCN(c2ccc3ncnc(Nc4ccc(Oc5ccn6ncnc6c5)c(C)c4)c3n2)CC1 [Compound 16, 1-(4-{4-[(3-methyl-4-{[1,2,4]triazolo[1,5-a]pyridin-7-yloxy}phenyl)amino]pyrido[3,2-d]pyrimidin-6-yl}-1,4-diazepan-1-yl)prop-2-en-1-one]",99.5 nM,30.6 nM,8010 nM
"Cc1cc(Nc2ncnc3cnc(N4CCN(C(=O)/C=C/CN(C)C)[C@H](C)C4)nc23)ccc1Cc1ccn2ncnc2c1 [Compound 122, (R,E)-1-(4-(8-((4-([1,2,4]triazolo[1,5-a]pyridin-7-ylmethyl)-3-methylphenyl)amino)pyrimido[5,4-d]pyrimidin-2-yl)-2-methylpiperazin-1-yl)-4-(dimethylamino)but-2-en-1-one]",32.4 nM,53.2 nM,> 10000 nM
"C=CC(=O)N1CC[C@@H](Oc2ccc3ncnc(Nc4ccc(Oc5ccc6c(c5)ncn6C)c(C)c4)c3c2)C1 [Compound 37, 1-[(3R)-3-{[4-({3-methyl-4-[(1-methyl-1,3-benzodiazol-5-yl)oxy]phenyl}amino)quinazolin-6-yl]oxy}pyrrolidin-1-yl]prop-2-en-1-one]",52.8 nM,33.7 nM,2880 nM
"CC#CC(=O)N1CCN(c2ccc3ncnc(Nc4ccc(O[C@@H]5CCCOC5)c(C)c4)c3n2)CC1 [Compound 32, 1-{4-[4-({3-methyl-4-[(3R)-oxan-3-yloxy]phenyl}amino)pyrido[3,2-d]pyrimidin-6-yl]piperazin-1-yl}but-2-yn-1-one]",288 nM,334 nM,3820 nM
"C=CC(=O)N1CCN(c2ccc3ncnc(Nc4ccc(O[C@@H]5CCCOC5)c(C)c4)c3c2)CC1 [Compound 102, 1-{4-[4-({3-methyl-4-[(3R)-oxan-3-yloxy]phenyl}amino)quinazolin-6-yl]piperazin-1-yl}prop-2-en-1-one]",43.9 nM,47.6 nM,244 nM
"C=CC(=O)N1CCN(c2ncc3ncnc(Nc4ccc(Oc5ccn6ncnc6c5)c(C)c4)c3n2)[C@@H](C)C1 [Compound 70, 1-[(3S)-3-methyl-4-{8-[(3-methyl-4-{[1,2,4]triazolo[1,5-a]pyridin-7-yloxy}phenyl)amino]pyrimido[5,4-d][1,3]diazin-2-yl}piperazin-1-yl]prop-2-en-1-one]",9.96 nM,16.3 nM,2320 nM
"Cc1cc(Nc2ncnc3ccc(N4CCN(C(=O)/C=C/CN(C)C)CC4C)c(F)c23)ccc1Cc1ccn2ncnc2c1 (stereo not drawn) [Compound 94, (E)-1-(4-(4-((4-([1,2,4]triazolo[1,5-a]pyridin-7-ylmethyl)-3-methylphenyl)amino)-5-fluoroquinazolin-6-yl)-3-methylpiperazin-1-yl)-4-(dimethylamino)but-2-en-1-one]",> 500 nM,160 nM,> 10000 nM
"C=CC(=O)N1CCN(c2ccc3ncnc(Nc4ccc(Cc5ccc6c(c5)ncn6C)c(C)c4)c3c2)C[C@H]1C [Compound 54, 1-[(2R)-2-methyl-4-[4-({3-methyl-4-[(1-methyl-1,3-benzodiazol-5-yl)methyl]phenyl}amino)quinazolin-6-yl]piperazin-1-yl]prop-2-en-1-one]",48.2 nM,21.9 nM,2420 nM
"C=CC(=O)N1CCN(c2ccc3ncnc(Nc4ccc(Cc5ccc6c(c5)ncn6C)c(C)c4)c3c2F)C[C@H]1C [Compound 78, 1-[(2R)-4-[5-fluoro-4-({3-methyl-4-[(1-methyl-1,3-benzodiazol-5-yl)methyl]phenyl}amino)quinazolin-6-yl]-2-methylpiperazin-1-yl]prop-2-en-1-one]",22.6 nM,70.4 nM,5130 nM
"C=CC(=O)N1CCN(c2ncc3ncnc(Nc4ccc(Oc5ccc6c(c5)ncn6C)c(C)c4)c3n2)C[C@H]1C [Compound 57, (R)-1-(2-methyl-4-(8-((3-methyl-4-((1-methyl-1H-benzo[d]imidazol-5-yl)oxy)phenyl)amino)pyrimido[5,4-d]pyrimidin-2-yl)piperazin-1-yl)prop-2-en-1-one]",21 nM,25.8 nM,2880 nM
"C=CC(=O)N1CCN(c2ccc3ncnc(Nc4ccc(Cc5ccn6ncnc6c5)c(C)c4)c3n2)CC12CC2 [Compound 129, 1-(7-{4-[(3-methyl-4-{[1,2,4]triazolo[1,5-a]pyridin-7-ylmethyl}phenyl)amino]pyrido[3,2-d]pyrimidin-6-yl}-4,7-diazaspiro[2.5]octan-4-yl)prop-2-en-1-one]",5.32 nM,21.5 nM,317 nM
"C=CC(=O)N1CCN(c2ccc3ncnc(Nc4ccc(CN5CCn6ncnc6C5)c(C)c4)c3n2)CC1 [Compound 34, 1-(4-{4-[(3-methyl-4-{5H,6H,8H-[1,2,4]triazolo[1,5-a]pyrazin-7-ylmethyl}phenyl)amino]pyrido[3,2-d]pyrimidin-6-yl}piperazin-1-yl)prop-2-en-1-one]",255 nM,68.9 nM,> 10000 nM
"C=CC(=O)N1CCN(c2ncc3ncnc(Nc4ccc(Oc5ccc6c(c5)ncn6C)c(C)c4)c3n2)CC1 [Compound 130, 1-(4-(8-((3-methyl-4-((1-methyl-1H-benzo[d]imidazol-5-yl)oxy)phenyl)amino)pyrimido[5,4-d]pyrimidin-2-yl)piperazin-1-yl)prop-2-en-1-one]",15 nM,13 nM,1480 nM
"C=CC(=O)N1CCN(c2ccc3ncnc(Nc4ccc(Oc5ccc6c(c5)ncn6C)c(C)c4)c3c2)CC1 [Compound 88, 1-{4-[4-({3-methyl-4-[(1-methyl-1,3-benzodiazol-5-yl)oxy]phenyl}amino)quinazolin-6-yl]piperazin-1-yl}prop-2-en-1-one]",22 nM,16.6 nM,729 nM
"C=CC(=O)N1CCC2(CCN(c3ccc4ncnc(Nc5ccc(Oc6ccn7ncnc7c6)c(C)c5)c4n3)C2)C1 (stereo not drawn) [Compound 20, 1-(7-{4-[(3-methyl-4-{[1,2,4]triazolo[1,5-a]pyridin-7-yloxy}phenyl)amino]pyrido[3,2-d]pyrimidin-6-yl}-2,7-diazaspiro[4.4]nonan-2-yl)prop-2-en-1-one]",21 nM,37.9 nM,> 10000 nM
"C=CC(=O)N1CCN(c2ccc3ncnc(Nc4ccc(Oc5ccn6ncnc6c5)c(C)c4)c3c2)[C@@H](C)C1 [Compound 90, (S)-1-(4-(4-((4-([1,2,4]triazolo[1,5-a]pyridin-7-yloxy)-3-methylphenyl)amino)quinazolin-6-yl)-3-methylpiperazin-1-yl)prop-2-en-1-one]",12 nM,14.4 nM,3230 nM
"C=CC(=O)N1CC[C@H](Oc2ccc3ncnc(Nc4ccc(Oc5ccc6c(c5)ncn6C)c(C)c4)c3c2)C1 [Compound 38, 1-[(3S)-3-{[4-({3-methyl-4-[(1-methyl-1,3-benzodiazol-5-yl)oxy]phenyl}amino)quinazolin-6-yl]oxy}pyrrolidin-1-yl]prop-2-en-1-one]",7.22 nM,7.56 nM,462 nM
"CC#CC(=O)N1CCN(c2ccc3ncnc(Nc4ccc(Oc5ccn6ncnc6c5)c(C)c4)c3n2)[C@@H](C)C1 [Compound 25, 1-[(3S)-3-methyl-4-{4-[(3-methyl-4-{[1,2,4]triazolo[1,5-a]pyridin-7-yloxy}phenyl)amino]pyrido[3,2-d]pyrimidin-6-yl}piperazin-1-yl]but-2-yn-1-one]",23.4 nM,63.5 nM,> 10000 nM
"Cc1cc(Nc2ncnc3ccc(N4CCN(C(=O)/C=C/CN(C)C)C[C@@H]4C)nc23)ccc1Cc1ccc2c(c1)ncn2C [Compound 126, (S,E)-4-(dimethylamino)-1-(3-methyl-4-(4-((3-methyl-4-((1-methyl-1H-benzo[d]imidazol-5-yl)methyl)phenyl)amino)pyrido[3,2-d]pyrimidin-6-yl)piperazin-1-yl)but-2-en-1-one]",29.6 nM,145 nM,> 10000 nM
